In BindingDB's records for doi:10.1021/acs.jmedchem.6b01851 (Amgen, 2017):

target: Sodium channel protein type 5 subunit alpha (Homo sapiens, UniProt Q14524); experiment: Inhibition of human Nav1.5 expressed in HEK293 cells assessed as reduction in peak inward current by ionworks quattro electrophysiology assay
Sequence (Q14524 whole entry): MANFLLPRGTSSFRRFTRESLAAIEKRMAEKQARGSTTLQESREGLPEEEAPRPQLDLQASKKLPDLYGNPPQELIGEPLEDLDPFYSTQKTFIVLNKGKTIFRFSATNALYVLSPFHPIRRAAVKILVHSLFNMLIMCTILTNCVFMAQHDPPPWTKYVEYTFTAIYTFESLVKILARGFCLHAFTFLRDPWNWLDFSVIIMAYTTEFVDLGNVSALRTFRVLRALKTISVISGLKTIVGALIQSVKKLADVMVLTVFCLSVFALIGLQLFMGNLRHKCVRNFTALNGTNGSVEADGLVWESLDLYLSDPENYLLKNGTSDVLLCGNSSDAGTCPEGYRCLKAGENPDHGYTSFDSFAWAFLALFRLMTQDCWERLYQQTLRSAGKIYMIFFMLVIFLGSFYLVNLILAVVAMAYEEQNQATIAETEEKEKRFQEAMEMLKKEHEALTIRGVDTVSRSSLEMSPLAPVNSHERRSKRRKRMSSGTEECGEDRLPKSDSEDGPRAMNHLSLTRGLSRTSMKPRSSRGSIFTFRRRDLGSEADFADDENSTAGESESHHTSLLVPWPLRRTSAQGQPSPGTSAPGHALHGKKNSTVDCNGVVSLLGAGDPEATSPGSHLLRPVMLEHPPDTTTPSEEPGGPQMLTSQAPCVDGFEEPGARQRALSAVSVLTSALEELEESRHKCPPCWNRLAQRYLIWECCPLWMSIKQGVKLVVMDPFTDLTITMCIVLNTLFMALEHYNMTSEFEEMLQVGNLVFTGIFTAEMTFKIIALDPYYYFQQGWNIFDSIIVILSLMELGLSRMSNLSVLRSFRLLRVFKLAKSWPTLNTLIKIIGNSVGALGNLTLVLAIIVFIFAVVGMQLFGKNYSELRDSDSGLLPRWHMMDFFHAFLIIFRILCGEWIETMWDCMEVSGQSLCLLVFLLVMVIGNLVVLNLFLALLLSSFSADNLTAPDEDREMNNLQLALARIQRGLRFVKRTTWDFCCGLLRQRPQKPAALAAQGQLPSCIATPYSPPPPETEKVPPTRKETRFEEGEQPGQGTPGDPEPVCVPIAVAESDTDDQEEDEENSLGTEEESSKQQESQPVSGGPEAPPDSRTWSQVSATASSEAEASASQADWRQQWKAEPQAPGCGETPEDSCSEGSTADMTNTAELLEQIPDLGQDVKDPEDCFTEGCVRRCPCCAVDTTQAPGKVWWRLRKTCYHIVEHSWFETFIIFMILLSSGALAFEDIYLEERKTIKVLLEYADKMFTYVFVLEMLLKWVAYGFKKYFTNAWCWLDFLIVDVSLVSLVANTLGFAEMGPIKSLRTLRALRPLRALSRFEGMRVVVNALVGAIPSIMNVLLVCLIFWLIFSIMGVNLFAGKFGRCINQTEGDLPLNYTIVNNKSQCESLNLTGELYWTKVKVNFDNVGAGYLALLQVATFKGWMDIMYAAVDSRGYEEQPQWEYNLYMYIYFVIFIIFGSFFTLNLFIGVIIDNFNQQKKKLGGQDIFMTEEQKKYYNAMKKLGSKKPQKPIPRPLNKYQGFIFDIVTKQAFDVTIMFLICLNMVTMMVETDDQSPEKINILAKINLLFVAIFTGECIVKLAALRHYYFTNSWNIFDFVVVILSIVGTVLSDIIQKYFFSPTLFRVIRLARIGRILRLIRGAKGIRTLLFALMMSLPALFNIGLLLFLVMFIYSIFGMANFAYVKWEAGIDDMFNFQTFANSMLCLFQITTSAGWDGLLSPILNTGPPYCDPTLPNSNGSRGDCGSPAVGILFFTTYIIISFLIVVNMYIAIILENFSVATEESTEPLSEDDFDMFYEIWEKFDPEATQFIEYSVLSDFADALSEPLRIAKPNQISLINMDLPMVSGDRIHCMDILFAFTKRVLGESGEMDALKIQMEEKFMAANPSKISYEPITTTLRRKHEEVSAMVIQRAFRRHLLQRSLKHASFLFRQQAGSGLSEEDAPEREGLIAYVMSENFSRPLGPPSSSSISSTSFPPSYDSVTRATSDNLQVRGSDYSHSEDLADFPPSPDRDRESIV

Structure (SMILES) | IC50 [µM]
COc1cc(-c2cccc(F)c2)c(Cl)cc1-c1ncc(O)c2cc(S(=O)(=O)Nc3ccon3)ccc12 [1-(2-chloro-3'-fluoro-5-methoxy-4-biphenylyl)-4-hydroxy-N-3-isoxazolyl-6-isoquinolinesulfonamide] | > 10
COc1cc(-c2cccc(F)c2)c(Cl)cc1-c1nccc2cc(S(=O)(=O)Nc3ncon3)ccc12 [1-(2-chloro-3'-fluoro-5-methoxy-4-biphenylyl)-N-1,2,4-oxadiazol-3-yl-6-isoquinolinesulfonamide] | > 10
COc1cc(-c2cccc(F)c2)c(Cl)cc1-c1nn(C)c(=O)c2cc(S(=O)(=O)Nc3ccon3)ccc12 [1-(2-chloro-3'-fluoro-5-methoxy-4-biphenylyl)-N-3-isoxazolyl-3-methyl-4-oxo-3,4-dihydro-6-phthalazinesulfonamide] | > 10
COc1cc(-c2cccc(F)c2)c(Cl)cc1-c1nccc2cc(S(=O)(=O)Nc3cccnn3)ccc12 [1-(2-chloro-3'-fluoro-5-methoxy-4-biphenylyl)-N-3-pyridazinyl-6-isoquinolinesulfonamide] | > 10
COc1cc(-c2cccc(Cl)c2)c(F)cc1-c1nccc2cc(S(=O)(=O)Nc3ccon3)ccc12 [1-(3'-chloro-2-fluoro-5-methoxy-4-biphenylyl)-N-3-isoxazolyl-6-isoquinolinesulfonamide] | > 10
COc1cc(-c2cccc(F)c2)c(Cl)cc1-c1ncnc2cc(S(=O)(=O)Nc3ccon3)ccc12 [4-(2-chloro-3'-fluoro-5-methoxy-4-biphenylyl)-N-3-isoxazolyl-7-quinazolinesulfonamide] | > 10
